Test results: paper PMC4851326, “Pharmacologic Comparison of Clinical Neutral Endopeptidase Inhibitors in a Rat Model of Acute Secretory Diarrhea” (The Journal of Pharmacology and Experimental Therapeutics, 2016)
Each block holds one compound with its values, some of them ahead of it.

How the values were obtained:
NEP [1] = target: T1, NEP (Homo sapiens, UniProt P08473); assay: Purified peptidase assay, NEP; assay type: biochemical
T1 construct: purchased R&D Systems (Minneapolis, MN)
Procedure: Purified recombinant human enzymes were purchased from R&D Systems (Minneapolis, MN). […] Each substrate was diluted to 100 μM in the assay buffer recommended for each enzyme by the supplier. […] To these, 5 μl of diluted enzyme was added, followed by 10 μl of the quenched peptide substrate. The plates were incubated at 37°C until at least 10% substrate turnover or 5 μM product had formed. Fluorescence was measured using a Tecan Safire II (Excitation 320 nm/Emission 420 nm). Each plate included a standard curve of reaction product and positive (no enzyme) and negative (dimethyl sulfoxide vehicle) controls. Dose-response data were plotted and inhibition values (IC50) determined by linear regression analysis using GraphPad Prism (GraphPad Software, La Jolla, CA).

[2] = system: castor oil–induced diarrhea; assay: Castor oil–induced diarrhea model; assay type: in vivo, rat
Procedure: Experiments were performed with 6-to-7-week-old male Wistar rats obtained from Charles River Laboratories (Wilmington, MA). All animals were housed in Saint Louis University facilities under controlled conditions of temperature, humidity, and a 12-hour light/dark cycle. They were maintained on standard rodent chow with free access to water. Animal care and all procedures were performed in accordance with the National Institutes of Health Guide for the Care and Use of Laboratory Animals and approved by the university’s institutional animal care and use committee.
Animals were weighed and individually housed in metabolic cages containing white paper underneath to collect feces. Test compounds or vehicles were administered by oral gavage (5 ml/kg), and then at indicated times, 10 ml/kg body weight of 100% castor oil was administered by oral gavage to induce diarrhea. Animals had access to food within 5 minutes. Stool weight was recorded starting 15 minutes after castor oil administration and repeated every 15 minutes up to 4 hours. […] After 4 hours, animals were euthanized with CO2, and blood and tissues were collected for analyses.

NEP [3] = target: T2, NEP (Rattus norvegicus, UniProt P07861); assay: NEP enzyme activity in tissues after oral treatment; assay type: in vivo; details: normal rats; for Relative NEP inhibition, duodenum / Relative NEP inhibition, jejunum / Relative NEP inhibition, kidney / Relative NEP inhibition, lung: vs vehicle
T2 construct: NEP enzyme activity was measured in tissue homogenates; from tissue; host or cells: Wistar rat kidney, lung, duodenum, jejunum homogenates
T2 sequence (P07861 1-750): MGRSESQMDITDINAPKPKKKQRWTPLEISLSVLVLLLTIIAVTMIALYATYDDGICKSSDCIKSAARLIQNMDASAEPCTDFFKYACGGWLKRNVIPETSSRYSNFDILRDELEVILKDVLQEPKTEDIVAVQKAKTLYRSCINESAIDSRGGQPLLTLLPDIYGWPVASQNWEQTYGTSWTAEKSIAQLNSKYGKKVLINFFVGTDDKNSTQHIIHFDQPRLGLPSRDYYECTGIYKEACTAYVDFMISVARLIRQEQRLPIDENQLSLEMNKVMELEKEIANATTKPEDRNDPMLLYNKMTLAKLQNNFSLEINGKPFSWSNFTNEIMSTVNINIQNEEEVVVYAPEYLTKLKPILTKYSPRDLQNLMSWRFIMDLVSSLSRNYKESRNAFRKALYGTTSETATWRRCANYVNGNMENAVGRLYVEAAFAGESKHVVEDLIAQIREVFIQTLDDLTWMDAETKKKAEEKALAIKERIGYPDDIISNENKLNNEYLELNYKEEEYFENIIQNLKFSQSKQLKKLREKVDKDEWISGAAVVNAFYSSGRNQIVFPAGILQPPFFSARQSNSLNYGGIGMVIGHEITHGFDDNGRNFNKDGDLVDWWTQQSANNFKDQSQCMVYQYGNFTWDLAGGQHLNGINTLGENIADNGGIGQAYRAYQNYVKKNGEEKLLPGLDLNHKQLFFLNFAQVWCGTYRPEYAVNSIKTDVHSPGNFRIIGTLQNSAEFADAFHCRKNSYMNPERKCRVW
Procedure: Four or five 2-mm Zirconia beads (Biospec, Bartlesville, OK) were added to fresh weighed tissue specimens (50–250 mg). Assay buffer consisting of 50 mM Tris-HCl (pH 7.4), 200 mM NaCl, and 0.05% TritonX-100 was added (4 μl/mg), and the sample was homogenized for 1 minute using a bead beater (Biospec). Stored frozen homogenates were thawed at room temperature and centrifuged 10 minutes at 18,000g, and the protein concentration was determined for each supernatant. […] NEP substrate 2Abz-dArg-Gly-Leu-C2-Dnp (American Peptide, Sunnyvale, CA) was prepared at 1 mM in 20% acetonitrile/water and diluted to 100 μM in assay buffer, and 10 μl was dispensed to homogenate-containing wells. […] Kinetic data were plotted to determine the rate of product formation by linear regression with interpolation against a standard curve, and the rate was normalized to protein concentration.

intestinal motility = assay: Charcoal meal model of intestinal motility; assay type: in vivo, rat; details: 30 minutes before charcoal meal, distance traveled in 20 minutes
Procedure: Rats were fasted for 18 hours before the experiment, with free access to water. Animals were weighed, and vehicle or compounds were administered by oral gavage. […] After 30 minutes, each animal received standard charcoal meal (10% suspension of activated charcoal in 5% gum arabic) by oral gavage (5 ml/kg). Animals were given access to food within 1 minute and sacrificed 20 minutes after the charcoal meal. The intestines were carefully removed. Motility was calculated as the measured distance traveled by the charcoal as a percentage of total length from pyloric sphincter to ileocecal junction.

[4] = 1 h after single oral dose (Race 100, Candox 150, Sac 100, UK 100 mg/kg)
[5] = 5 h after single oral dose (Race 100, Candox 150, Sac 100, UK 100 mg/kg)

T1 sequence (P08473 whole entry): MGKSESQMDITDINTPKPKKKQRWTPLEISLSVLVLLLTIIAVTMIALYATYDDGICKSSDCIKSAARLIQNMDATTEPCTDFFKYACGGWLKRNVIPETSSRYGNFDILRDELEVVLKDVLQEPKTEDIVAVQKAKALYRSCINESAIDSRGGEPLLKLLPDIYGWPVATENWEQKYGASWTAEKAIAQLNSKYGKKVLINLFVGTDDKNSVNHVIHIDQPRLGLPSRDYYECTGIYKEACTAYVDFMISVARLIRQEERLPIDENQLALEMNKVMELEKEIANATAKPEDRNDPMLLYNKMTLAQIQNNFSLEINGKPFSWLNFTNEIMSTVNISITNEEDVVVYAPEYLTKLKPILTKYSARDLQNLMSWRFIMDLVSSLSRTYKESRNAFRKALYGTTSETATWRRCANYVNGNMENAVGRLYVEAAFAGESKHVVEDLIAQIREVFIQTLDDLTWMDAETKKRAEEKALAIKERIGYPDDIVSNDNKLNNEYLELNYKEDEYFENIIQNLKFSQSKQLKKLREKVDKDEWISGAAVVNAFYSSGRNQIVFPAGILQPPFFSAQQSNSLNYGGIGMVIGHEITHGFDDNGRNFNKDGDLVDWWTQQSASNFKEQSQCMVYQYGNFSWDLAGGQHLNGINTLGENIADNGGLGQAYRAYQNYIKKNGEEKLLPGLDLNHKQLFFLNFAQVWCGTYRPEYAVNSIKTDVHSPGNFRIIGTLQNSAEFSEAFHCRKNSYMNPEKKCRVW

IC50 (NEP [1]; recombinant purified human enzyme, for prodrugs the active form was tested): < 0.1 µM | NEP selectivity over the other peptidases (NEP [1]; versus panel of ACE, ECE-1, ECE-2, IDE, APN, PSA): > 60 fold
Compound: COCCOC[C@H](CC1(C(=O)N[C@H]2CC[C@@H](C(=O)O)CC2)CCCC1)C(=O)O [Candoxatrilat, candoxatrilat]

Compound: CC(=O)SCC(Cc1ccccc1)C(=O)NCC(=O)OCc1ccccc1 (centres unmarked) [Racecadotril]
Stool output, 150 or 240 minutes predosing ([2]; 100 mg/kg oral 150 or 240 minutes before castor oil (Fig. 4B, 4C)): Neither drug was effective | Incidence of diarrhea ([2]; dose-response study (Fig. 2A), 30 minutes before castor oil, sacubitril at highest tested dose, racecadotril 100 mg/kg): 100% | Cumulative stool output over 4 hours ([2]; single oral dose 30 minutes before castor oil, fasted rats, vs vehicle (Fig. 1)): significantly reduced | Stool output, dose-response studies ([2]; single oral treatment with varying doses (racecadotril 100 mg/kg) 30 minutes before castor oil (Fig. 2A, 2C)): significantly reduced stool output | Relative NEP inhibition, duodenum (NEP [3]; [4]): 98% | Relative NEP inhibition, jejunum (NEP [3]; [4]): 90% | Relative NEP inhibition, kidney (NEP [3]; [4]): 56% | Relative NEP inhibition, lung (NEP [3]; [4]): 75% | NEP enzyme activity in duodenum and jejunum (NEP [3]; 1 hour after single oral 100 mg/kg dose (Fig. 3A, B)): barely detectable levels | Relative NEP inhibition, duodenum (NEP [3]; [5]): 85% | Relative NEP inhibition, jejunum (NEP [3]; [5]): 32% | Relative NEP inhibition, kidney (NEP [3]; [5]): 39% | Relative NEP inhibition, lung (NEP [3]; [5]): 59% | NEP inhibition in lung and kidney tissue after 24 hours (NEP [3]; 24 hours after single oral 100 mg/kg dose (Fig. 3C, D)): returned to normal | Effect on intestinal transit (charcoal meal test) (intestinal motility; oral, dose not given (Fig. 5)): no effect

Effect on intestinal transit (charcoal meal test) (intestinal motility; 30 mg/kg oral): no effect | Effect on intestinal transit (charcoal meal test) (intestinal motility; 100 mg/kg oral): significant but very modest effect
Compound: CCOC(=O)[C@H](C)C[C@@H](Cc1ccc(-c2ccccc2)cc1)NC(=O)CCC(=O)O [Sacubitril, 4-(((2S,4R)-1-([1,1′-biphenyl]-4-yl)-5-ethoxy-4-methyl-5-oxopentan-2-yl)amino)-4-oxobutanoic acid]

Compound: CN(C)C(=O)C(CCN1CCC(O)(c2ccc(Cl)cc2)CC1)(c1ccccc1)c1ccccc1 [loperamide]
Effect on intestinal transit (charcoal meal test) (intestinal motility; oral, dose not given (Fig. 5)): greatly slowed transit
